Results: US6855728B2, “Small-molecule modulators of hepatocyte growth factor / scatter factor activities” (North Shore-Long Island Jewish Health System, priority 2001, dated 2005)

How the values were obtained:
[1] = tested on: HGF/SF induced proliferation of HUVEC; assay: Endothelial cell (HUVEC) proliferation assay in the presence of exogenously-added HGF/SF; assay type: cell-based, human; details: with HGF/SF; for inhibition at 6 µg/mL / inhibition at 2 µg/mL: Homo sapiens; for Activity at 6 microgram/ml With HGF/SF (result in words) / inhibition at 6 µg/mL / Activity at 6 microgram/ml With HGF/SF: inhibition (blocked SF): 6 microgram/ml; for inhibition at 6 µg/mL: read-out: Activity at 6 microgram/ml With HGF/SF: inhibition (blocked SF); for inhibition at 2 µg/mL: read-out: Activity at 2 microgram/ml With HGF/SF: inhibition (blocked SF)
Text: To evaluate inhibitors of activity, compounds may be evaluated directly for anti-proliferative activities, such as the inhibition of cellular proliferation, inhibition of tumor growth, inhibition of scatter, and inhibition of gene expression, and may also be evaluated on their ability to inhibit activity when exposed to cells together with. In such instances, the scatter and/or proliferative activities induced by added will be inhibited by the attendant presence of an inhibitory compound of the invention.
(§1) Cell proliferation assays Endothelial cells (HUVECs) were seeded in 48 well plates at a density of 10,000 to 20,000 cells per well in the normal growth medium (EGM-2-Clonetics) containing 2% fetal bovine serum, FGF, VEGF, IGF, ascorbic acid, EGF, GA, heparin and hydrocortisone. The cells were grown normally in the growth medium for 24 hr at 37 degrees C. and 5% CO2. The cells were then rinsed with RPMI-1% BSA and starved for 1-2 hrs. The stock solutions of all the compounds were made at a concentration of 10 mg/ml in DMSO and diluted in RPMI-1% BSA at a final concentrations of 1 to 12 microgram/ml. The cells were then washed and treated with the compounds and incubated for another 24 hr at 37 degrees C. Then ^3H thymidine (0.5 microgram/ml in RPMI-BSA) was added to the cells and incubated at 37 degrees C. for 4 to 5 hours. The unincorporated thymidine was removed by washing the cells four times with 1× PBS. Then the cells were lysed with 0.5M NaOH for 30 min and the radioactivity counted in the beta counter.

[2] = tested on: Endothelial cells (HUVECs); assay: Endothelial cell (HUVEC) proliferation assay, 3H thymidine incorporation, compound without added growth factor; assay type: cell-based, human; details: without HGF/SF; for inhibition at 6 µg/mL / inhibition at 2 µg/mL: Homo sapiens, inhibition of HUVEC proliferation; for Activity at 2 microgram/ml Without HGF/SF: stimulation / Activity at 2 microgram/ml Without HGF/SF (result in words) / inhibition at 2 µg/mL: 2 microgram/ml
Experimental: as §1, with “counter. […]” for “counter.”

[3] = stimulation of HUVEC proliferation
[4] = stimulation of endothelial cell proliferation
[5] = inhibition of HUVEC proliferation
[6] = 2 microgram/ml, inhibition of HUVEC proliferation

SMILES | Activity at 6 microgram/ml Without HGF/SF (result in words) ([2]; 6 microgram/ml) | Activity at 2 microgram/ml With HGF/SF (result in words) ([1]; 2 microgram/ml) | inhibition at 6 µg/mL [1, 5] [%] | Activity at 2 microgram/ml Without HGF/SF (result in words) [2] | other results
Cc1onc(-c2c(Cl)cccc2Cl)c1C(=O)NNC(=O)CON=Cc1ccc(Cl)cc1Cl [N′4-(2-(((2,4-dichlorobenzylidene)amino)oxy)acetyl)-3-(2,6-dichlorophenyl)-5-methylisoxazole-4-carbohydrazide] | No effect |  |  |  | Activity at 2 microgram/ml With HGF/SF: stimulation ([1]; 2 microgram/ml, stimulation of HUVEC proliferation): 30%; Activity at 6 microgram/ml With HGF/SF (result in words) [1]: No effect; Activity at 2 microgram/ml Without HGF/SF: stimulation [2, 3]: 32%
C[Si](C)(C)c1cccc(-c2ccccc2)c1 [(3-Biphenyl) Trimethyl silane] |  |  |  |  | Stimulation/Inhibition at 6-12 micrograms/ml With (result in words) ([1]; 6-12 micrograms/ml): No effect; Stimulation at 6-12 micrograms/ml Without HGF/SF [2, 4]: 40% stimulation
Cc1n[nH]c(C)c1Cc1c(F)cccc1Cl [4-(2-chloro-6-fluorobenzyl)-3,5-dimethyl-1H-pyrazole] | No effect | No effect |  |  | Activity at 6 microgram/ml With HGF/SF (result in words) [1]: No effect; Activity at 2 microgram/ml Without HGF/SF: stimulation [2, 3]: 54%
c1ccc(-c2cc(-c3ccccc3)cc(-c3ccccc3)c2)cc1 [1,3,5-triphenylbenzene] |  |  |  |  | Stimulation at 6-12 micrograms/ml With ([1]; 6-12 micrograms/ml, stimulation of endothelial cell proliferation): two fold stimulation; Stimulation at 6-12 micrograms/ml Without HGF/SF [2, 4]: 40-60% stimulation
Cc1nn(C(=O)c2cccs2)c(C)c1Cc1c(F)cccc1Cl [(4-(2-chloro-6-fluorobenzyl)-3,5-dimethyl-1H-pyrazole-1-yl)(2-thienyl)methanone] | No effect | No effect | 61 | No effect | 
O=C(C=Cc1ccc(Br)cc1)c1ccccc1 [3-(4-Bromophenyl)-1-phenylprop-2-en-1-one] |  |  |  |  | Stimulation/Inhibition at 6-12 micrograms/ml With (result in words) ([1]; 6-12 micrograms/ml): some additive effect; Stimulation at 1 ug/ml Without HGF/SF ([2]; 1 ug/ml, stimulation of endothelial cell proliferation): 40-80% stimulation at 1
Cc1onc(-c2c(Cl)cccc2Cl)c1C(=O)NN1CCCCCC1 [N4-azepan-1-yl-3-(2,6-dichlorophenyl)-5-methylisoxazole-4-carboxamide] |  | No effect | 50 | No effect | inhibition at 6 µg/mL ([2]; 6 microgram/ml): 50%
Cc1onc(-c2c(Cl)cccc2Cl)c1C(=O)NNc1cccc(C(F)(F)F)n1 [N′4-(6-(trifluoromethyl)-2-pyridyl)-3-(2,6-dichlorophenyl)-5-methylisoxazole-4-carbohydrazide] |  |  | 80 |  | inhibition at 2 µg/mL [1, 6]: 50%; inhibition at 2 µg/mL [2]: 40%; inhibition at 6 µg/mL ([2]; 6 microgram/ml): 50%
Cc1onc(-c2c(Cl)cccc2Cl)c1C(=O)NN(C)c1ccc([N+](=O)[O-])cn1 [N′4,5-dimethyl-N′4-(5-nitro-2-pyridyl)-3-(2,6-dichlorophenyl)isoxazole-4-carbohydrazide] | No effect | No effect | 43 | No effect | 
Cc1nn(CCC#N)c(C)c1Cc1c(Cl)cccc1Cl [3-(4-(2,6-dichlorobenzyl)-3,5-dimethyl-1H-pyrazol-1-yl)propanenitrile] |  |  | 65 | No effect | inhibition at 2 µg/mL [1, 6]: 36%; inhibition at 6 µg/mL ([2]; 6 microgram/ml): 34%
Cc1onc(-c2c(Cl)cccc2Cl)c1C(=O)NNc1c(Cl)cc(Cl)cc1Cl [N′4-(2,4,6-trichlorophenyl)-3-3(2,6-dichlorophenyl)-5-methylisoxazole-4-carbohydrazide] | No effect | No effect |  | No effect | Activity at 6 microgram/ml With HGF/SF: inhibition (blocked SF) [1, 5]: 60%
Cc1onc(-c2c(Cl)cccc2Cl)c1C(=O)NNc1ccccc1 [N′4-phenyl-3-(2,6-dichlorophenyl)-5-methylisoxazole-4-carbohydrazide] | No effect |  | 80 | No effect | inhibition at 2 µg/mL [1, 6]: 40%
CCOC(CC(=O)NNC(=O)c1c(-c2c(Cl)cccc2Cl)noc1C)OCC [N′4-(3,3-diethoxypropanoyl)-3-(2,6-dichlorophenyl)-5-methylisoxazole-4-carbohydrazide] | No effect | No effect | 35 | No effect | 
Cc1onc(-c2c(Cl)cccc2Cl)c1C(=O)NN(C)C [N′4,N′4,5-trimethyl-3-(2,6-dichlorophenyl)isoxazole-4-carbohydrazide] | No effect | No effect | 40 | No effect | 
COc1cc(CCC(=O)NNC(=O)c2c(-c3c(Cl)cccc3Cl)noc2C)cc(OC)c1OC [N′4-(3-(3,4,5-trimethoxyphenyl)propanoyl)-3-(2,6-dichlorophenyl)-5-methylisoxazole-4-carbohydrazide] | Cytotoxic |  |  |  | inhibition at 2 µg/mL [1, 6]: 50%; inhibition at 2 µg/mL [2]: 50%
Cc1nc(C(=O)NNC(=O)c2c(-c3c(Cl)cccc3Cl)noc2C)cs1 [N′4-((2-methyl-1,3-thiazol-4-4yl)carbonyl)-3-(2,6-dichlorophenyl)-5-methylisoxazole-4-4carbohydrazide] |  |  |  | No effect | Activity at 2 microgram/ml With HGF/SF: inhibition (blocked SF) [1, 6]: 50%; Activity at 6 microgram/ml With HGF/SF: inhibition (blocked SF) [1, 5]: 50%; Activity at 6 microgram/ml Without HGF/SF: stimulation ([2]; 6 microgram/ml, stimulation of HUVEC proliferation): 52%
Cc1onc(-c2c(Cl)cccc2Cl)c1C(=O)NNc1c(Cl)cccc1Cl [N′4,3-di(2,6-dichlorophenyl)-5-methylisoxazole-4-carbohydrazide] |  | not significant | 60 | No effect | inhibition at 6 µg/mL ([2]; 6 microgram/ml): 30%
C(=C1CCCc2c(-c3ccccc3)cc(-c3ccccc3)pc21)c1ccccc1 (centres unmarked) [8-Benzyledene-2,4 Diphenyl-5,6,7,8 Tetrahydrophosphinoline] |  |  |  |  | Activity at 1 ug/ml concentration With HGF/SF: inhibition ([1]; 1 ug/ml, inhibition of endothelial cell proliferation): 40% inhibition; Activity at 1 ug/ml concentration Without HGF/SF (result in words) ([2]; 1 ug/ml): no significant effect
Cc1nn(S(=O)(=O)c2ccc(Cl)cc2)c(C)c1Cc1c(Cl)cccc1Cl [1-((4-chlorophenyl)sulfonyl)-4-(2,6-dichlorobenzyl)-3,5-dimethyl-1H-pyrazol] | No effect | No effect | 50 | No effect | 
Cc1nn(-c2onc(-c3c(Cl)cccc3Cl)c2C(=O)NN)c(C)c1Br [(4-bromo-3,5-dimethyl-1H-pyrazol-1-yl)(3-(2,6-dichlorophenyl)isoxazole-4-carbohydrazide)] |  | No effect |  |  | Activity at 6 microgram/ml With HGF/SF (result in words) [1]: No effect; Activity at 2 microgram/ml Without HGF/SF: stimulation [2, 3]: 74%
Cc1onc(-c2c(Cl)cccc2Cl)c1C(=O)NNc1c(Cl)cncc1Cl [N′4-(3,5-dichloro-4-pyridyl)-3-(2,6-dichlorophenyl)-5-methylisoxazole-4-carbohydrazide] | No effect |  | 25 | No effect | inhibition at 2 µg/mL [1, 6]: 25%
